Laboratory results reported in US20200069691A1, “HETEROCYCLIC COMPOUNDS AS HIV PROTEASE INHIBITORS” (Merck Sharp & Dohme Corp., priority 2016, published 2020).

What follows are compounds tested against T1, wild-type HIV-1 protease (Human immunodeficiency virus type 1 group M subtype B, UniProt P04585) (assay: Assay for Inhibition of Microbial Expressed HIV Protease (peptide substrate cleavage, LC-MS/MS readout)). Conditions: E. coli expressed wild-type HIV-1 protease, mean of at least two independent experiments, read-out: HIV Pr Enzyme HIV1 PR IC50.
T1 construct: Escherichia coli expressed wild-type HIV-1 protease protein
Assay type: biochemical
Method: Assay for Inhibition of Microbial Expressed HIV Protease
Inhibition of Escherichia coli expressed wild-type HIV-1 protease protein was carried out with a peptide substrate [Val-Ser-Gln-Asn-(βnaphtyl)Ala-Pro-Ile-Val]. The inhibitor compound was preincubated with HIV-1 protease enzyme in assay buffer (50 mM sodium acetate, pH 5.5, 100 mM NaCl, and 0.1% BSA) for 30 minutes at room temperature. Peptide substrate was added to 400 μM in a total volume of 20 μL containing […] HIV-1 protease (final) after which the reaction was incubated for 1 hour at 30° C. […] The extent of inhibition of the reaction was determined from the peak area of the products.
Data shown in the table reflects the mean of at least two independent experiments.
`N=C1N[C@@](c2ccc(F)cc2)(C2CCOCC2)C(=O)N1C1CCCc2ccc(C(=O)N3Cc4nccnc4C3)cc21` (stereo in doubt) [Compound 130, (5R)-3-[(1R)-7-(5,7-dihydro-6H-pyrrolo[3,4-b]pyrazin-6-ylcarbonyl)-1,2,3,4-tetrahydronaphthalen-1-yl]-5-(4-fluorophenyl)-2-imino-5-(tetrahydro-2H-pyran-4-yl)imidazolidin-4-one] showed an IC50 of 80.5 nM. With `CC(C)CC[C@]1(c2ccc(F)cc2)NC(=N)N(C(CCCc2ccccc2)c2ccc(C(F)(F)F)c(C(=O)N3Cc4nccnc4C3)c2)C1=O` (stereo partly drawn) [Compound 2, (5R)-3-{1-[3-(5,7-dihydro-6H-pyrrolo[3,4-b]pyrazin-6-ylcarbonyl)-4-(trifluoro-methyl)phenyl]-4-phenylbutyl}-5-(4-fluorophenyl)-2-imino-5-(3-methylbutyl)imidazolidin-4-one] the IC50 was 0.14 nM. `N=C1N[C@](CCC2CC2)(c2ccc(F)cc2)C(=O)N1C(CCc1ccccc1)c1ccc(C(F)(F)F)c(C(=O)N2Cc3nccnc3C2)c1` (stereo partly drawn) [Compound 3, (5R)-5-(2-cyclopropylethyl)-3-{1-[3-(5,7-dihydro-6H-pyrrolo[3,4-b]pyrazin-6-ylcarbonyl)-4-(trifluoromethyl)phenyl]-3-phenylpropyl}-5-(4-fluorophenyl)-2-iminoimidazolidin-4-one] was tested, and the IC50 was 0.17 nM. In the case of `CC(C)CC[C@]1(c2ccc(F)cc2)NC(=N)N(C(Cc2ccccc2)c2ccc(C(F)(F)F)c(C(=O)N3Cc4nccnc4C3)c2)C1=O` (stereo partly drawn) [Compound 4, (5R)-3-{1-[3-(5,7-dihydro-6H-pyrrolo[3,4-b]pyrazin-6-ylcarbonyl)-4-(trifluoromethyl)-phenyl]-2-phenylethyl}-5-(4-fluorophenyl)-2-imino-5-(3-methylbutyl)-imidazolidin-4-one], the IC50 is reported as 0.2 nM. In the case of `CC(C)CC[C@]1(c2ccccc2)NC(=N)N(C(CC(C)C)c2ccc(C(F)(F)F)c(C(=O)N3Cc4nccnc4C3)c2)C1=O` (stereo partly drawn) [Compound 5, (5R)-3-{1-[3-(5,7-dihydro-6H-pyrrolo[3,4-b]pyrazin-6-ylcarbonyl)-4-(trifluoromethyl)-phenyl]-3-methylbutyl}-2-imino-5-(3-methylbutyl)-5-phenylimidazo-lidin-4-one], the IC50 is reported as 0.26 nM. For `CC(C)CC[C@]1(c2ccc(F)cc2)NC(=N)N(C(Cc2ccccc2)c2ccc(C(F)(F)F)c(C(=O)N3Cc4nccnc4C3)c2)C1=O` (stereo partly drawn) [Compound 6, (5R)-3-{1-[3-(5,7-dihydro-6H-pyrrolo[3,4-b]pyrazin-6-ylcarbonyl)-4-(trifluoromethyl)-phenyl]-2-phenylethyl}-5-(4-fluorophenyl)-2-imino-5-(3-methylbutyl)imidazolidin-4-one], the IC50 was 0.26 nM. In the case of `N=C1N[C@](CCC2CC2)(c2ccc(F)cc2)C(=O)N1C(CN1CCCC1=O)c1ccc(C(F)(F)F)c(C(=O)N2Cc3nccnc3C2)c1` (stereo partly drawn) [Compound 7, (5R)-5-(2-cyclopropylethyl)-3-{1-[3-(5,7-dihydro-6H-pyrrolo[3,4-b]pyrazin-6-ylcarbonyl)-4-(trifluoromethyl)phenyl]-2-(2-oxopyrrolidin-1-yl)ethyl}-5-(4-fluorophenyl)-2-iminoimidazolidin-4-one], the IC50 is reported as 0.39 nM. Compound `CC(C)CC[C@]1(c2ccc(F)cc2)NC(=N)N(C(COC(C)C)c2ccc(C(F)(F)F)c(C(=O)N3Cc4nccnc4C3)c2)C1=O` (stereo partly drawn) [Compound 8, (5R)-3-{1-[3-(5,7-dihydro-6H-pyrrolo[3,4-b]pyrazin-6-ylcarbonyl)-4-(trifluoromethyl)phenyl]-2-(1-methylethoxy)ethyl}-5-(4-fluorophenyl)-2-imino-5-(3-methylbutyl)imidazolidin-4-one] has an IC50 of 0.52 nM. `CC(C)CCC(c1ccc(C(F)(F)F)c(C(=O)N2Cc3nccnc3C2)c1)N1C(=N)N[C@](CCC(C)C)(c2ccccc2)C1=O` (stereo partly drawn) [Compound 9, (5R)-3-{1-[3-(5,7-dihydro-6H-pyrrolo[3,4-b]pyrazin-6-ylcarbonyl)-4-(trifluoromethyl)phenyl]-4-methylpentyl}-2-imino-5-(3-methylbutyl)-5-phenylimidazolidin-4-one] was tested, and the IC50 was 0.6 nM. Compound `N=C1N[C@](CCCC(F)(F)F)(c2ccc(F)cc2)C(=O)N1Cc1ccc(C(F)(F)F)c(C(=O)N2Cc3cnc(-c4cnn(CCO)c4)nc3C2)c1` [Compound 12, (5R)-5-(4-fluorophenyl)-3-[3-({2-[1-(2-hydroxyethyl)-1H-pyrazol-4-yl]-5,7-dihydro-6H-pyrrolo[3,4-d]pyrimidin-6-yl}carbonyl)-4-(trifluoromethyl)benzyl]-2-imino-5-(4,4,4-trifluorobutyl)imidazolidin-4-one] has an IC50 of 1.32 nM. Work on `CC(C)CC(c1ccc(C(F)(F)F)c(C(=O)N2Cc3nccnc3C2)c1)N1C(=N)N[C@](CC2CCOCC2)(c2ccc(F)cc2)C1=O` (stereo partly drawn) [Compound 14, (5R)-3-{1-[3-(5,7-dihydro-6H-pyrrolo[3,4-b]pyrazin-6-ylcarbonyl)-4-(trifluoromethyl)phenyl]-3-methylbutyl}-5-(4-fluorophenyl)-2-imino-5-(tetrahydro-2H-pyran-4-ylmethyl)imidazolidin-4-one] yielded an IC50 of 1.77 nM. For `Cn1cc(-c2ncc3c(n2)CN(C(=O)c2cc(CN4C(=N)N[C@](CCCC(F)(F)F)(c5ccc(F)cc5)C4=O)ccc2C(F)(F)F)C3)cn1` [Compound 15, (5R)-5-(4-fluorophenyl)-2-imino-3-[3-{[2-(1-methyl-1H-pyrazol-4-yl)-5,7-dihydro-6H-pyrrolo[3,4-d]pyrimidin-6-yl]carbonyl}-4-(trifluoromethyl)benzyl]-5-(4,4,4-trifluorobutyl)imidazolidin-4-one], the IC50 was 1.95 nM. `CN(C)c1ccc(-c2ncc3c(n2)CN(C(=O)c2cc(CN4C(=N)N[C@](CCCC(F)(F)F)(c5ccc(F)cc5)C4=O)ccc2C(F)(F)F)C3)cn1` [Compound 16, (5R)-3-[3-({2-[6-(dimethylamino)pyridin-3-yl]-5,7-dihydro-6H-pyrrolo[3,4-d]pyrimidin-6-yl}carbonyl)-4-(trifluoromethyl)benzyl]-5-(4-fluorophenyl)-2-imino-5-(4,4,4-trifluorobutyl)imidazolidin-4-one] showed an IC50 of 1.98 nM. For `CS(=O)(=O)CCn1cc(-c2ncc3c(n2)CN(C(=O)c2cc(CN4C(=N)N[C@](CCCC(F)(F)F)(c5ccc(F)cc5)C4=O)ccc2C(F)(F)F)C3)cn1` [Compound 17, (5R)-5-(4-fluorophenyl)-2-imino-3-{3-[(2-{1-[2-(methylsulfonyl)ethyl]-1H-pyrazol-4-yl}-5,7-dihydro-6H-pyrrolo[3,4-d]pyrimidin-6-yl)carbonyl]-4-(trifluoromethyl)-benzyl}-5-(4,4,4-trifluorobutyl)-imidazolidin-4-one], the IC50 was 1.99 nM. `CCCn1cc(-c2ncc3c(n2)CN(C(=O)c2cc(CN4C(=N)N[C@](CCCC(F)(F)F)(c5ccc(F)cc5)C4=O)ccc2C(F)(F)F)C3)cn1` [Compound 18, (5R)-5-(4-fluorophenyl)-2-imino-3-[3-{[2-(1-propyl-1H-pyrazol-4-yl)-5,7-dihydro-6H-pyrrolo[3,4-d]pyrimidin-6-yl]carbonyl}-4-(trifluoromethyl)benzyl]-5-(4,4,4-trifluorobutyl)imidazolidin-4-one] showed an IC50 of 2 nM. `COCCn1cc(-c2ncc3c(n2)CN(C(=O)c2cc(CN4C(=N)N[C@](CCCC(F)(F)F)(c5ccc(F)cc5)C4=O)ccc2C(F)(F)F)C3)cn1` [Compound 20, (5R)-5-(4-fluorophenyl)-2-imino-3-[3-({2-[1-(2-methoxyethyl)-1H-pyrazol-4-yl]-5,7-dihydro-6H-pyrrolo[3,4-d]pyrimidin-6-yl}carbonyl)-4-(trifluoromethyl)benzyl]-5-(4,4,4-trifluorobutyl)imidazolidin-4-one] was tested, and the IC50 was 2.3 nM. `C[S+]([O-])c1cccc(-c2ncc3c(n2)CN(C(=O)c2cc(CN4C(=N)N[C@](CCCC(F)(F)F)(c5ccc(F)cc5)C4=O)ccc2C(F)(F)F)C3)c1` (stereo partly drawn) [Compound 21, (5R)-5-(4-fluorophenyl)-2-imino-3-[3-({2-[3-(methylsulfmyl)phenyl]-5,7-dihydro-6H-pyrrolo[3,4-d]pyrimidin-6-yl}carbonyl)-4-(trifluoromethyl)benzyl]-5-(4,4,4-trifluorobutyl)imidazolidin-4-one] showed an IC50 of 2.31 nM. `N=C1N[C@](CCCC(F)(F)F)(c2ccc(F)cc2)C(=O)N1Cc1ccc(C(F)(F)F)c(C(=O)N2Cc3cnc(-c4cccc5[nH]ncc45)nc3C2)c1` [Compound 22, (5R)-5-(4-fluorophenyl)-2-imino-3-[3-{[2-(1H-indazol-4-yl)-5,7-dihydro-6H-pyirolo[3,4-d]pyrimidin-6-yl]carbonyl}-4-(trifluoromethyl)benzyl]-5-(4,4,4-trifluorobutyl)imidazolidin-4-one] gave an IC50 of 2.32 nM. `CC(C)CCC(c1ccc(C(F)(F)F)c(C(=O)N2CCn3c(nnc3C(F)(F)F)C2)c1)N1C(=N)N[C@](CCC(C)C)(c2ccccc2)C1=O` (stereo partly drawn) [Compound 23, (5R)-2-imino-5-(3-methylbutyl)-3-{4-methyl-1-[4-(trifluoromethyl)-3-{[3-(trifluoromethyl)-5,6-dihydro[1,2,4]triazolo[4,3-a]pyrazin-7(8H)-yl]carbonyl}phenyl]pentyl}-5-phenylimidazolidin-4-one] gave an IC50 of 2.38 nM. In the case of `CS(=O)(=O)c1cccc(-c2ncc3c(n2)CN(C(=O)c2cc(CN4C(=N)N[C@](CCCC(F)(F)F)(c5ccc(F)cc5)C4=O)ccc2C(F)(F)F)C3)c1` [Compound 24, (5R)-5-(4-fluorophenyl)-2-imino-3-[3-({2-[3-(methylsulfonyl)phenyl]-5,7-dihydro-6H-pyrrolo[3,4-d]pyrimidin-6-yl}carbonyl)-4-(trifluoromethyl)benzyl]-5-(4,4,4-trifluorobutyl)imidazolidin-4-one], the IC50 is reported as 2.41 nM.
